This assay has as its target T1, recombinant human 15-PGDH (Homo sapiens, UniProt P15428).
T1 construct: purchased R&D Systems
T1 sequence (P15428 1-266): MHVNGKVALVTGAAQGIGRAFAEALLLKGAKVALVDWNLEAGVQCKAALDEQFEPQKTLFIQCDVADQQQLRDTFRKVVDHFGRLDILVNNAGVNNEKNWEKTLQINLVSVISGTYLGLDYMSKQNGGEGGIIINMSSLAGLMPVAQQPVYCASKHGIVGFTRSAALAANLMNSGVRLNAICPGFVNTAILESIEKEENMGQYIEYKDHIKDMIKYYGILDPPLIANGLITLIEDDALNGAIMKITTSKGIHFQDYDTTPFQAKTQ
Nature of the assay: 15-PGDH enzyme inhibition test. Format: biochemical. The settings on record: 4 nM recombinant human 15-PGDH, 30 μM PGE2, 1 mM NAD+, 60 minutes after starting the reaction; read-out: IC50 Value. Here is the method: 15-PGDH Enzyme Inhibition Test
A test compound and 4 nM recombinant human 15-PGDH (R&D Systems) were added, in 50 mM Tris-HCl (pH 8.0) containing 0.01% TWEEN 20 (Sigma) and 0.01% bovine gamma globulin (Sigma), to a 384-well Flat Bottom Black plate (Corning, 3820), and the resultant was allowed to stand still at room temperature for 12 minutes, and 30 μM PGE2 (Cayman Chemical) and 1 mM NAD+ (Sigma) were added thereto to start the reaction. 60 minutes after starting the reaction, measurement was performed using Synergy 2 (BioTeck) at an excitation wavelength of 340 nm and a fluorescence wavelength of 440 nm. Assuming that a fluorescence signal obtained with an assay buffer added instead of the test compound and NAD+ was 100% and that a signal obtained with NAD+ added was 0%, a concentration corresponding to 50% inhibition plotted on a concentration-reaction curve of the test compound was defined as an IC50 value. Incidentally, in the following tables, an IC50 value smaller than 10 nM was shown as +++, an IC50 value equal to or larger than 10 nM and smaller than 100 nM was shown as ++, and an IC50 value equal to or larger than 100 nM was shown as +.

Structures are written as SMILES.

With `CCn1nc2cc(N3CCCc4cc(C(=O)N5CCOCC5)cnc43)ccn2c1=O` [Example 8-151], the IC50 lay within 10 to 100 nM.

Regarding `O=C(O)c1cccc(N2CCOc3cc(C(=O)N4CCCCC4)ccc32)c1` [Example 2-31], the IC50 was less than 10 nM.

On to `CN1Cc2cc(N3CCOc4cc(SC5CCCCC5)cnc43)ccc2C1=O` [Example 1-136], for which the IC50 lay within 10 to 100 nM.

`CN1Cc2cc(N3CCOc4cc(C(=O)N5CCC[C@@H](CF)C5)cnc43)ccc2C1=O` [Example 8-203]: the IC50 is less than 10 nM.

`O=C(c1cnc2c(c1)OCCN2c1ccc2c(=O)[nH]ccc2c1)N1CCCCC1` [Example 1-219]: the IC50 was less than 10 nM.

For `O=C(O)c1ccc(N2CCOc3c2ccc(C(=O)N2CCCCC2)c3C2CC2)cc1` [Example 9-1, 4-(8-Cyclopropyl-7-(piperidine-1-carbonyl)-2,3-dihydro-4H-benzo[b][1,4]oxazin-4-yl)benzoic Acid], the IC50 was less than 10 nM.

For `CCN1Cc2cc(N3CCCc4cc(C(=O)N5CCCCC5)cnc43)ccc2C1=O` [Example 1-169], the IC50 was less than 10 nM.

Take `CCN1Cc2cc(N3CCCc4cc(C(=O)N5CCC[C@H](C(F)(F)F)C5)cnc43)ccc2C1=O` [Example 8-88]: the IC50 is less than 10 nM.

`CNC(=O)c1ccc(N2CCOc3cc(C(=O)N4CCCCC4)cnc32)cc1F` [Example 6-5]: the IC50 was less than 10 nM.

For `O=C(O)c1ccc(N2CCC[S+]([O-])c3cc(C(=O)N4CCCCC4)ccc32)cc1` (centres unmarked) [Example 2-19], the IC50 is more than 100 nM.

`Cn1nc2cc(N3CCCc4cc(C(=O)N5CCC(F)(F)CC5)cnc43)ccn2c1=O` [Example 1-129]: the IC50 was less than 10 nM.

For `Cn1oc2cc(N3CCOc4cc(C(=O)N5CCCCC5)cnc43)ccc2c1=O` [Example 1-19], the IC50 is less than 10 nM.

Turning to `Cn1nc2cc(N3CCOc4cc(C(=O)N5CCC[C@H](CF)C5)cnc43)ccn2c1=O` [Example 8-65], the IC50 was less than 10 nM.

For the compound `O=C(c1cnc2c(c1)OCCN2c1ccn2ncnc2c1)N1CCCCC1` [Example 1-106], the IC50 is less than 10 nM.

Turning to `Cn1nc2cc(N3CCOc4cc(C(=O)N5CCCCC5)cnc43)ccn2c1=O` [Example 1-21], the IC50 is less than 10 nM.

As for `O=C(O)c1cccc(N2CCCc3cc(C(=O)N4CCCCC4)cnc32)c1` [Example 4-20], the IC50 lay in the range of 10 to 100 nM.

As for `Cn1nc2cc(N3CCOc4cc(C(=O)N5CCC[C@@H]5C(=O)O)cnc43)ccn2c1=O` [Example 35-2], the IC50 is more than 100 nM.

With `CN1CCN(C(=O)c2cnc3c(c2)CCCN3c2ccn3c(=O)n(C)nc3c2)CC1` [Example 8-127], the IC50 fell in the range of 10 to 100 nM.

On to `Cn1nc2cc(N3CCOc4cc(C(=O)N5CCC[C@@H](C(F)(F)F)C5)cnc43)ccn2c1=O` [Example 8-115], for which the IC50 is less than 10 nM.

As to `CCOCn1nc2cc(N3CCOc4cc(C(=O)N5CCCCC5)cnc43)ccn2c1=O` [Example 1-268], the IC50 is less than 10 nM.

As to `Cn1nc2cc(N3CCOc4cc(C(=O)N5CCCC6CC65)cnc43)ccn2c1=O` (single isomer, unassigned) [23-1 Isomer B, 7-(7-(2-Azabicyclo[4,1,0]heptane-2-carbonyl)-2,3-dihydro-4H-pyrido[3,2-b][1,4]oxazin-4-yl)-2-methyl-[1,2,4]triazolo[4,3-a]pyridin-3(2H)-one], the IC50 is less than 10 nM.

On to `Cn1nc2cc(N3CCOc4cc(C(=O)N5CCCC6CC65)cnc43)ccn2c1=O` (centres unmarked) [Example 8-54], for which the IC50 is less than 10 nM.

For the compound `Cn1cnc2cc(N3CCCc4cc(C(=O)N5CCC(F)(F)CC5)cnc43)ccc2c1=O` [Example 1-88], the IC50 was less than 10 nM.

For `CCn1nc2cc(N3CCCc4cc(C(=O)N5CCC(F)(F)C(C)C5)cnc43)ccn2c1=O` (centres unmarked) [Example 8-169], the IC50 is less than 10 nM.

Consider `Cn1cnc2cc(N3CCCc4cc(C(=O)N5CCCCC5)cnc43)ccc2c1=O` [Example 1-87], for which the IC50 was less than 10 nM.

On to `O=C(O)c1ccccc1N1CCOc2cc(C(=O)N3CCCCC3)cnc21` [Example 2-36], for which the IC50 was more than 100 nM.

For `CN1CCN(C(=O)c2cnc3c(c2)OCCN3c2ccc3c(c2)CN(C)C3=O)CC1` [Example 8-189], the IC50 was less than 10 nM.

On to `O=C(O)c1ccc(N2CCOc3cc(C(=O)N4CCCCC4)cnc32)cc1F` [Example 20-1, 2-Fluoro-4-(7-(piperidine-1-carbonyl)-2,3-dihydro-4H-pyrido[3,2-b][1,4]oxazin-4-yl)benzoic Acid], for which the IC50 is less than 10 nM.

For the compound `CCN1Cc2cc(N3CCCc4cc(C(=O)N5CCCCCCC5)cnc43)ccc2C1=O` [Example 8-71], the IC50 was less than 10 nM.

`O=C(c1cnc2c(c1)CCCN2c1cc2c(cn1)C(=O)N(CC1COC1)C2)N1CCC(F)(F)CC1` [Example 1-186]: the IC50 fell in the range of 10 to 100 nM.

As to `O=C(O)c1ccc(N2CCCCOc3cc(C(=O)N4CCCCC4)cnc32)cc1` [Example 2-9], the IC50 was less than 10 nM.

In the case of `Cn1nc2cc(N3CCN(c4ccccc4)c4cc(C(=O)N5CCC(F)(F)CC5)cnc43)ccn2c1=O` [Example 30-1, 7-(7-(4,4-Difluoropiperidine-1-carbonyl)-1-phenyl-2,3-dihydropyrido[2,3-b]pyrazin-4(1H)-yl)-2-methyl-[1,2,4]triazolo[4,3-a]pyridin-3 (2H)-one], the IC50 lay within 10 to 100 nM.

Take `NC(=O)Cn1nc2cc(N3CCOc4cc(C(=O)N5CCCCC5)cnc43)ccn2c1=O` [Example 6-6]: the IC50 was less than 10 nM.

With `O=C(O)c1ccc(N2CCOc3c2ccc(C(=O)N2CCCCC2)c3Cl)cc1` [Example 2-4], the IC50 is less than 10 nM.

In the case of `COC(=O)c1cn(C)c2cc(N3CCOc4cc(C(=O)N5CCCCC5)cnc43)ccc12` [Example 1-90], the IC50 is 10 to 100 nM.

In the case of `Cn1nc2cc(N3CCOc4cc(C(=O)N5CCc6ccccc65)cnc43)ccn2c1=O` [Example 8-104], the IC50 lay within 10 to 100 nM.

Consider `CN1Cc2cc(N3CCCc4cc(C(=O)N5CCC(F)(F)CC5)cnc43)ccc2C1=O` [Example 1-81], for which the IC50 is less than 10 nM.

For the compound `CCn1oc2cc(N3CCOc4cc(C(=O)N5CCCCC5)cnc43)ccc2c1=O` [Example 8-213], the IC50 was less than 10 nM.

For the compound `O=C(c1cnc2c(c1)OCCN2c1ccc(C(F)(F)F)cc1)N1CCCCC1` [Example 1-242], the IC50 was 10 to 100 nM.

As to `COc1cc(N2CCOc3cc(C(=O)N4CCC(F)(F)CC4)ccc32)ccc1C(=O)O` [Example 2-13], the IC50 was less than 10 nM.

Take `Cn1nc2cc(N3CCOc4cc(C(=O)NCCCO)cnc43)ccn2c1=O` [Example 8-174]: the IC50 lay within 10 to 100 nM.

As for `O=C(c1cnc2c(c1)OCCN2c1ccn2c(=O)n(Cc3ccnc(Cl)c3)nc2c1)N1CCCCC1` [Example 27-2], the IC50 is less than 10 nM.

As to `CN1C(=O)c2ccc(N3CCOc4cc(C(=O)N5CCCCC5)cnc43)cc2S1(=O)=O` [Example 1-165], the IC50 is less than 10 nM.

As to `C[C@@H]1CCCN(C(=O)c2cnc3c(c2)OCCN3c2ccc3c(c2)CN(C)C3=O)C1` [Example 8-197], the IC50 was less than 10 nM.

Turning to `Cn1nc2cc(N3CCCOc4cc(C(=O)N5CCC(F)(F)CC5)cnc43)ccn2c1=O` [Example 8-64], the IC50 was less than 10 nM.

In the case of `COC(=O)c1nc2ccc(N3CCOc4cc(C(=O)N5CCCCC5)cnc43)cc2s1` [Example 11-3], the IC50 was less than 10 nM.

As to `Cn1nc2cc(N3CCOc4cc(SC5CCCCC5)cnc43)ccn2c1=O` [Example 1-110], the IC50 is less than 10 nM.

With `Cn1nc2cc(N3CCNc4cc(C(=O)N5CCC(F)(F)CC5)cnc43)ccn2c1=O` [Example 28-2], the IC50 was less than 10 nM.

With `O=C(O)c1ccc(N2CCS(=O)(=O)c3cc(C(=O)N4CCCCC4)ccc32)cc1` [Example 2-17], the IC50 lay in the range of 10 to 100 nM.

With `N#Cc1ccc(N2CCCc3cc(C(=O)N4CCCCC4)cnc32)cc1` [Example 1-209], the IC50 is less than 10 nM.

Take `CN1Cc2cc(N3CCOc4cc(C(=O)C5CCC(F)(F)CC5)cnc43)ccc2C1=O` [Example 1-133]: the IC50 is less than 10 nM.

With `CN1Cc2cc(N3CCOc4cc(C(=O)N5CCC(F)(F)CC5)ccc43)ncc2C1=O` [Example 1-151], the IC50 is less than 10 nM.

In the case of `O=C(O)c1ccc(N2CCOc3cc(C(=O)N4CCC[C@H](F)C4)cnc32)cc1` [Example 4-8], the IC50 is less than 10 nM.

`O=C(O)c1ccc(N2CC[S+]([O-])c3cc(C(=O)N4CCCCC4)ccc32)cc1` (centres unmarked) [Example 2-16]: the IC50 fell in the range of 10 to 100 nM.

Take `CC1CN(C(=O)c2cnc3c(c2)OCCN3c2ccn3c(=O)n(C)nc3c2)CCC1(F)F` (centres unmarked) [Example 8-47]: the IC50 is less than 10 nM.

Regarding `Cn1nc2cc(N3CC(C)(C)Oc4cc(C(=O)N5CCCCC5)cnc43)ccn2c1=O` [Example 1-93], the IC50 was less than 10 nM.

On to `C[C@H]1CCCN1C(=O)c1cnc2c(c1)OCCN2c1ccn2c(=O)n(C)nc2c1` [Example 8-29], for which the IC50 was less than 10 nM.

For `CCCCn1nc2cc(N3CCOc4cc(C(=O)N5CCCCC5)cnc43)ccn2c1=O` [Example 1-216], the IC50 is less than 10 nM.

With `Cn1nc2cc(N3CCOc4cc(C(=O)NCCCCO)cnc43)ccn2c1=O` [Example 8-176], the IC50 is 10 to 100 nM.

By IC50 is commonly meant the midpoint of a concentration-inhibition curve.

The values are drawn from patent publication US12577217B2, “15-PGDH inhibitor” (KYORIN Pharmaceutical Co., Ltd., priority 2019, dated 2026).
